Source: patent EP0781283B1, “TRIAZOLOPYRIDAZINES PROCESS AND INTERMEDIATES FOR THEIR PREPARATION AND THEIR USE AS MEDICAMENTS” (Takeda Chemical Industries, Ltd., priority 1994, dated 1996)

Tests used:
[1] = test system: Guinea Pig Eosinophils; assay: Chemotaxis inhibition assay (LTB4-induced chemotaxis of guinea pig eosinophils); assay type: cell-based; details: test drug final concentration 10^-5 M, LTB4 10^-8 M, 2 hours; for inhibition at 10 µM: Cavia porcellus, Eosinophil, read-out: Chemotaxis Inhibition Rate (%)
Method: Male Hartley guinea pigs (body weights approx. 300 g) were intraperitoneally treated with 2 ml of horse serum (Whittaker Bioproducts) once a week for 8 consecutive weeks. Forty-eight (48) hours after the last treatment, 75 ml of physiological saline was infused into the peritoneal cavity and the lavage was collected and centrifuged at 400 G (1500 rpm) for 5 minutes. The pellet was suspended in 5 ml of Percoll discontinuous density, gradients (specific gravity d=1.07), layered on top of the Percoll suspensions (specific gravity d=1.112:5 ml, d=1.095:10 ml, d=1.090:10 ml, d=1.085:7 ml) and centrifuged (18°C) at 1000 G (2200 rpm) for 30 minutes. The cell layer formed in the boundary zone between the d=1.112 and d=1.095 layers was collected. The collected cell sediment was subjected to hypotonic treatment (suspended in water for 30 seconds) to remove the contaminant erythrocytes.
The sediment was washed three times with Hanks solution containing 10 mM Hepes (Dojin Kagaku) (Hanks-Hepes) and suspended in Hanks-Hepes containing 2% (w/v) human serum albumin (Wako Pure Chemical) (Hanks-Hepes-HSA) at a concentration of 5.56 x 10^6 celles/ml. The eosinophil purity was 92-96% and the viability of eosinophils was not less than 98%.
To a 24-well petri dish, which serves as a lower chamber, 600 µl of LTB4 (final concentration 10^-8 M, Cascade Biochemical Ltd.) in suspension in Hanks-Hepes-HSA solution, was transferred, followed by incubation at 37°C for 30 minutes in carbon dioxide incubator. Separately, 200 µl (5 × 10^6 cells/ml) of eosinophil suspension, previously incubated at 37°C for 15 minutes in a constant-temperature chamber, was added to Chemotaxicell (polycarbonate membrane, pore size 3 µm, thickness 10 µm), which serves as an upper chamber, after the upper chamber was attached to the 24-well petri dish. After 2 hours of reaction in the carbon dioxide incubator, the Chemotaxicell was removed; 60 µl of a 2% (w/v) solution of EDTA in physiological saline was added to the liquid in the lower chamber. After the mixture was ice cooled, the cells migrating into the lower chamber liquid were counted using a blood cell counter (Coulter Counter (trade name)). The test drug, dissolved in dimethyl formamide (DMF), was added to both the upper and lower chambers to a final concentration of 10^-5 M. [formula]

[2] = test system: PAF-induced bronchoconstriction; assay: Effect on platelet activating factor (PAF)-induced bronchoconstriction in guinea pig (Konzett-Roessler method); assay type: in vivo; details: P.O., one hour before PAF (1 µg/kg i.v.), male Hartley guinea pigs
Method: Male Hartley guinea pigs (body weights about 500 g) were used. Bronchoconstriction induced by PAF (1 µg/kg i.v.) in guinea pigs was measured according to the method of Konzett-Roessler. The guinea pig immobilized in the dorsal position, tracheotomy was anesthetized with urethane (1.5 g/kg i.v.) and the trachea was connected through a cannula to a respirator. The side branch of the tracheal cannula was connected to a broncho transducer (Model 7020, Ugobasile). The volume of overflow air was recorded on a rectigraph (Recte-Hori-8S, San-ei Sokki) through the brancho transducer. After guinea pig was given gallamine (1 mg/kg i.v.), the guinea pig was treated by PAF (1 µg/kg). The drug suspended in a 5% solution of gum arabic was administered orally in a dose of 3 mg/kg or 1 mg/kg one hour before PAF treatment.

| Compound | Chemotaxis Inhibition Rate (%) [1] [%] | % Inhibition of PAF-induced bronchoconstriction ([2]; 1 mg/kg) [%] | inhibition at 10 µM [1] [%] | % Inhibition of PAF-induced bronchoconstriction ([2]; 3 mg/kg) [%] |
| --- | --- | --- | --- | --- |
| CCc1cc2ncnn2nc1OCC(C)(C)CS(N)(=O)=O [Example 1, 6-(2,2-dimethyl-3-sulfamoyl-l-propoxy)-7-ethyl[1,2,4]triazolo[1,5-b]pyridazine] | 35 | 70 | – | – |
| CC(C)Cc1cc2ncnn2nc1OCC(C)(C)CS(N)(=O)=O [Example 5, 6-(2,2-dimethyl-3-sulfamoyl-1-propoxy)-7-isobutyl[1,2,4]triazolo[1,5-b]pyridazine] | – | – | 27 | – |
| Cc1cc2ncnn2nc1OCC(C)(C)CS(N)(=O)=O [Reference compound, 6-(2,2-dimethyl-3-sulfamoyl-1-propoxy)-7-methyl[1,2,4]triazolo[1,5-b]pyridazine, reference compound] | – | – | 12 | 25 |
| CCC(CC)(COc1nn2ncnc2cc1C(C)C)CS(N)(=O)=O [Example 4, 6-(2,2-diethyl-3-sulfamoyl-1-propoxy)-7-isopropyl[1,2,4]triazolo[1,5-b]pyridazine] | – | 60 | 23 | – |
| CCCc1cc2ncnn2nc1OCC(C)(C)CS(N)(=O)=O [Example 2, 6-(2,2-dimethyl-3-sulfamoyl-1-propoxy)-7-n-propyl[1,2,4]triazolo[1,5-b]pyridazine] | – | 67 | 24 | – |
| CC(C)(COc1nn2ncnc2cc1C(C)(C)C)CS(N)(=O)=O [Example 6, 6-(2,2-dimethyl-3-sulfamoyl-1-propoxy)-7-t-butyl[1,2,4]triazolo[1.5-b]pyridazine] | 38 | 43 | – | 83 |
| CC(C)c1cc2ncnn2nc1OCC(C)(C)CS(N)(=O)=O [Example 3, 6-(2,2-dimethyl-3-sulfamoyl-1-propoxy)-7-isopropyl[1,2,4]triazolo[1,5-b]pyridazine] | – | 72 | – | – |
| CCCCCCc1cc2ncnn2nc1OCC(C)(C)CS(N)(=O)=O [Example 7, 6-(2,2-dimethyl-3-sulfamoyl-1-propoxy)-7-n-hexyl[1,2,4]triazolo[1,5-b]pyridazine] | – | – | 24 | – |
